In ChEMBL document CHEMBL4813931, “Boesenmaxane Diterpenoids from Boesenbergia maxwellii” (J Nat Prod, 2021):
Activity calls are given as the source filed them. No cut-off for these calls is given here.

Legend:
[1] = system: P388; test: Cytotoxicity against mouse P388 cells measured after 48 hrs by SRB assay; format: functional, cell-based
[2] = system: KB; test: Cytotoxicity against human KB cells measured after 48 hrs by SRB assay; format: functional, cell-based
[3] = system: HT-29; test: Cytotoxicity against human HT-29 cells measured after 48 hrs by SRB assay; format: functional, cell-based
[4] = system: MCF7; test: Cytotoxicity against human MCF7 cells measured after 48 hrs by SRB assay; format: functional, cell-based
[5] = system: A549; test: Cytotoxicity against human A549 cells measured after 48 hrs by SRB assay; format: functional, cell-based
[6] = system: ASK; test: Cytotoxicity against rat ASK cells measured after 48 hrs by SRB assay; format: functional, cell-based
[7] = system: T-24; test: Cytotoxicity against human T-24 cells measured after 48 hrs by SRB assay; format: functional, cell-based
[8] = system: HEK293; test: Cytotoxicity against human HEK293 cells measured after 48 hrs by SRB assay; format: cell-based; settings: hek293, 48 h
[9] = target: Human immunodeficiency virus type 1 reverse transcriptase (Human immunodeficiency virus 1) (UniProt Q72547); test: Inhibition of HIV-1 reverse transcriptase using poly(rA)/oligo(dT)1 as template/primer incubated for 1 hr by pico-green reagent based fluorescence analysis
[10] = Cytotoxicity against human 1A2 cells measured after 1 hr by XTT assay; format: cell-based; settings: 1A2, 1 h
[11] = Selectivity index, ratio of IC50 for human 1A2 cells to EC50 for Human calicivirus strain MC99 infected in human 1A2 cells; format: toxicity, cell-based; settings: read-out: Ratio IC50/EC50
[12] = system: Staphylococcus aureus; test: Antibacterial activity against Staphylococcus aureus assessed as bacterial growth inhibition measured after 16 to 18 hrs by Kirby-Bauer disk diffusion method; format: functional, organism-based; settings: time 16-18 hrs
[13] = system: Escherichia coli; test: Antibacterial activity against Escherichia coli assessed as bacterial growth inhibition measured after 16 to 18 hrs by Kirby-Bauer disk diffusion method; format: functional, organism-based; settings: time 16-18 hrs
[14] = system: Enterococcus faecalis; test: Antibacterial activity against Enterococcus faecalis assessed as bacterial growth inhibition measured after 16 to 18 hrs by Kirby-Bauer disk diffusion method; format: functional, organism-based; settings: time 16-18 hrs
[15] = system: Bacillus cereus; test: Antibacterial activity against Bacillus cereus assessed as bacterial growth inhibition measured after 16 to 18 hrs by Kirby-Bauer disk diffusion method; format: functional, organism-based; settings: time 16-18 hrs
[16] = system: Candida albicans; test: Antifungal activity against Candida albicans assessed as fungal growth inhibition measured after 16 to 18 hrs by Kirby-Bauer disk diffusion method; format: functional, organism-based; settings: time 16-18 hrs

Compound	Activity [1]	Activity [2]	Activity [3]	Activity [4]	Activity [5]	Activity [6]	Activity [7]	Activity [8]	inhibition [9]	IC50 [10]	selectivity ratio [11]	inhibition [12]	inhibition [13]	inhibition [14]	inhibition [15]	inhibition [16]
CC1(C)CCC[C@]2(C)C3=C(C[C@H](C4=CCOC4=O)C3)C(=O)C[C@@H]12	inactive	inactive	inactive	inactive	inactive	inactive	inactive	Non-Toxic	inactive	> 398 µM	> 7.2	inactive	inactive	inactive	inactive	inactive
CC1(C)C(=O)CC[C@]2(C)C3=C(C[C@H](C4=CCOC4=O)C3)C(=O)C[C@@H]12	inactive	inactive	inactive	inactive	inactive	inactive	inactive	Non-Toxic	inactive	–	–	inactive	inactive	inactive	inactive	inactive
CC1(C)CCC[C@]2(C)[C@H]3C[C@@H](C4=CCOC4=O)CC3=CC[C@@H]12	inactive	inactive	inactive	inactive	inactive	inactive	inactive	Non-Toxic	–	381 µM	–	inactive	inactive	inactive	inactive	inactive
